In patent US8895585B2, “Nicotinamide derivative or salt thereof” (FUJIFILM Corporation, priority 2010, dated 2014) one finds IC50 data, which are given here for 22 molecules.

The test concerns the target T1, glutathione S-transferase (GST)-fused full-length human Syk protein (Homo sapiens, UniProt P43405).
T1 construct: (GST)-fused full-length human Syk protein; GST (glutathione S-transferase); purchased Carna Biosciences
The test is described as follows: Syk enzyme assay. The test is classed as biochemical. Conditions: Syk enzyme assay, Test Example 1; read-out: IC50 of Syk-inhibitory activity. As to the method: A glutathione S-transferase (GST)-fused full-length human Syk protein (Carna Biosciences), which had been generated using a Baculovirus expression system, was used in the Syk enzyme assay.
15 μl of a reaction solution (1.2 ng Syk, 20 mM HEPES, 10 mM MgCl2, 50 mM NaCl, 2 mM DTT, 0.05% BSA, pH 7.0) containing a Syk protein and a predetermined concentration of a test compound was shaken for 2 minutes, and it was then left at rest at room temperature for 13 minutes. Thereafter, 5 μl of Biotin-EDPDYEWPSA-NH2 (final concentration: 0.4 μM) serving as a substrate peptide and 5 μl of ATP (final concentration: 27 μM) were added to the reaction solution, and the obtained mixture was then shaken for 2 minutes. The reaction solution was further left at rest at room temperature for 40 minutes, so as to carry out an enzyme reaction.
Thereafter, 50 μl of a reaction termination solution [5 μg/ml Streptavidin, 0.18 μg/ml PT66-K, 30 mM HEPES (pH 7.0), 150 mM KF, 75 mM EDTA, 0.15% BSA, 0.075% Tween20], which contained Streptavidin-Xlent (Cisbio) and Mab PT66-K (Cisbio), was added to the reaction solution to terminate the enzyme reaction. At the same time, the reaction solution was left at rest at room temperature for 1 hour, so as to carry out an antigen-antibody reaction. Thereafter, using EnVision (PerkinElmer), the time-resolved fluorescence was measured at 615 nm and 665 nm, so that the phosphorylation of the substrate peptide was measured.
In addition, the following are standards for evaluating IC50 of Syk-inhibitory activity used in Table 21. • A: Up to 10 nM • B: 10 to 50 nM • C: 50 to 100 nM • D: 100 to 1000 nM The set of numbers (XYZ-xyz) given in each Example number column indicates the corresponding Example number (Example XYZ-xyz) in Table 21.
On to `NC(=O)c1cc(F)c(N[C@@H]2CCCC[C@@H]2N)nc1Nc1cncc(C(F)(F)F)c1` (relative stereo) [Example 004-098, 6-(cis-2-aminocyclohexylamino)-5-fluoro-2-((5-(trifluoromethyl)pyridin-3-yl)amino)-nicotinamide], for which the IC50 was 0.01 to 0.05 µM.
For `Cc1cccc(-c2cncc(Nc3nc(N[C@@H]4CCCC[C@@H]4N)c(F)cc3C(N)=O)c2)c1` (relative stereo) [Example 004-099, 6-(cis-2-aminocyclohexylamino)-5-fluoro-2-((5-(3-methylphenyl)pyridin-3-yl)amino)-nicotinamide], the IC50 is less than 0.01 µM.
Then `Cc1ccc(-c2cncc(Nc3nc(N[C@@H]4CCCC[C@@H]4N)c(F)cc3C(N)=O)c2)cc1` (relative stereo) [Example 004-100, 6-(cis-2-aminocyclohexylamino)-5-fluoro-2-((5-(4-methylphenyl)pyridin-3-yl)amino)-nicotinamide], with less than 0.01 µM.
Then `Cc1ccccc1-c1cncc(Nc2nc(N[C@@H]3CCCC[C@@H]3N)c(F)cc2C(N)=O)c1` (relative stereo) [Example 004-101, 6-(cis-2-aminocyclohexylamino)-5-fluoro-2-((5-(2-methylphenyl)pyridin-3-yl)amino)-nicotinamide], with 0.01 to 0.05 µM; and `NC(=O)c1cc(F)c(N[C@@H]2CCCC[C@@H]2N)nc1Nc1ccc(C(F)(F)F)nc1` (relative stereo) [Example 004-102, 6-(cis-2-aminocyclohexylamino)-5-fluoro-2-((6-(trifluoromethyl)pyridin-3-yl)amino)-nicotinamide], with 0.05 to 0.1 µM; and `NC(=O)c1cc(F)c(N[C@@H]2CCCC[C@@H]2N)nc1Nc1cncc(N2CCCCC2=O)c1` (relative stereo) [Example 004-108, 6-(cis-2-aminocyclohexylamino)-5-fluoro-2-((5-(2-oxopiperidine-1-yl)pyridin-3-yl)amino)-nicotinamide], with 0.1 to 1 µM.
Then `NC(=O)c1cc(F)c(N[C@@H]2CCCC[C@@H]2N)nc1Nc1cncc(-c2cccc(OCCN3CCOCC3)c2)c1` (relative stereo) [Example 004-110, 6-(cis-2-aminocyclohexylamino)-5-fluoro-2-((5-(3-(2-morpholinoethoxy)phenyl)pyridin-3-yl)amino)nicotinamide], with less than 0.01 µM.
For the molecule `COCCOc1ccc(-c2cncc(Nc3nc(N[C@@H]4CCCC[C@@H]4N)c(F)cc3C(N)=O)c2)cc1` (relative stereo) [Example 004-111, 6-(cis-2-aminocyclohexylamino)-5-fluoro-2-((5-(4-(2-methoxyethoxy)phenyl)pyridin-3-yl)-amino)nicotinamide], the IC50 was less than 0.01 µM.
As for `NC(=O)c1cc(F)c(N[C@@H]2CCCC[C@@H]2N)nc1Nc1cncc(-c2ccc(OCCN3CCOCC3)cc2)c1` (relative stereo) [Example 004-112, 6-(cis-2-aminocyclohexylamino)-5-fluoro-2-((5-(4-(2-morpholinoethoxy)phenyl)pyridin-3-yl)amino)nicotinamide], the IC50 was less than 0.01 µM.
For the molecule `CNc1cccc2cc(Nc3nc(N[C@@H]4CCCC[C@@H]4N)c(F)cc3C(N)=O)cnc12` (relative stereo) [Example 004-116, 6-(cis-2-aminocyclohexylamino)-5-fluoro-2-((8-(methylamino)quinolin-3-yl)amino)-nicotinamide], the IC50 was less than 0.01 µM.
For `Cn1ccc(-c2cncc(Nc3nc(N[C@@H]4CCCC[C@@H]4N)c(F)cc3C(N)=O)c2)c1` (relative stereo) [Example 004-119, 6-(cis-2-aminocyclohexylamino)-5-fluoro-2-((5-(1-methyl-1H-pyrrol-3-yl)pyridin-3-yl)-amino)nicotinamide], the IC50 was less than 0.01 µM.
For `COCCOc1cccc2cc(Nc3nc(N[C@@H]4CCCC[C@@H]4N)c(F)cc3C(N)=O)cnc12` (relative stereo) [Example 004-121, 6-(cis-2-aminocyclohexylamino)-5-fluoro-2-((8-(2-methoxyethoxy)quinolin-3-yl)amino)-nicotinamide], the IC50 was less than 0.01 µM.
Then `NC(=O)c1cc(F)c(N[C@@H]2CCCC[C@@H]2N)nc1Nc1cnc2c(O)cccc2c1` (relative stereo) [Example 004-124, 6-(cis-2-aminocyclohexylamino)-5-fluoro-2-((8-hydroxyquinolin-3-yl)amino)nicotinamide], with less than 0.01 µM; and `NC(=O)c1cc(F)c(N[C@@H]2CCCC[C@@H]2N)nc1Nc1ccc2nccn2c1` (relative stereo) [Example 004-130, 6-(cis-2-aminocyclohexylamino)-5-fluoro-2-((imidazo[1,2-a]pyridin-6-yl)amino)-nicotinamide], with 0.1 to 1 µM.
Consider `NC(=O)c1cc(F)c(N[C@@H]2CCCC[C@@H]2N)nc1Nc1ccn2ccnc2c1` (relative stereo) [Example 004-131, 6-(cis-2-aminocyclohexylamino)-5-fluoro-2-((imidazo[1,2-a]pyridin-7-yl)amino)-nicotinamide], for which the IC50 was in the range of 0.01 to 0.05 µM.
Regarding `NC(=O)c1cc(F)c(N[C@@H]2CCCC[C@@H]2N)nc1Nc1cnc2c(F)cccc2c1` (relative stereo) [Example 004-135, 6-(cis-2-aminocyclohexylamino)-5-fluoro-2-((8-fluoroquinolin-3-yl)amino)nicotinamide], the IC50 was 0.01 to 0.05 µM.
Take `CNc1cc(Nc2nc(N[C@@H]3CCCC[C@@H]3N)c(F)cc2C(N)=O)cc2cccnc12` (relative stereo) [Example 004-136, 6-(cis-2-aminocyclohexylamino)-5-fluoro-2-((8-(methylamino)quinolin-6-yl)amino)-nicotinamide]: the IC50 was less than 0.01 µM.
Take `COCCNc1cc(Nc2nc(N[C@@H]3CCCC[C@@H]3N)c(F)cc2C(N)=O)cc2cccnc12` (relative stereo) [Example 004-137, 6-(cis-2-aminocyclohexylamino)-5-fluoro-2-((8-(2-methoxyethylamino)quinolin-6-yl)-amino)nicotinamide]: the IC50 is less than 0.01 µM.
Consider `COc1cc(Nc2nc(N[C@@H]3CCCC[C@@H]3N)c(F)cc2C(N)=O)cc2cccnc12` (relative stereo) [Example 004-138, 6-(cis-2-aminocyclohexylamino)-5-fluoro-2-((8-methoxyquinolin-6-yl)amino)nicotinamide], for which the IC50 is less than 0.01 µM.
For `COCCOc1cc(Nc2nc(N[C@@H]3CCCC[C@@H]3N)c(F)cc2C(N)=O)cc2cccnc12` (relative stereo) [Example 004-139, 6-(cis-2-aminocyclohexylamino)-5-fluoro-2-((8-(2-methoxyethoxy)quinolin-6-yl)amino)-nicotinamide], the IC50 was less than 0.01 µM.
On to `NC(=O)c1cc(F)c(N[C@@H]2CCCC[C@@H]2N)nc1Nc1cc(OCc2ccccc2)c2ncccc2c1` (relative stereo) [Example 004-140, 6-(cis-2-aminocyclohexylamino)-2-((8-(benzyloxy)quinolin-6-yl)amino)-5-fluoronicotinamide], for which the IC50 lay within 0.01 to 0.05 µM.
Regarding `COC(=O)c1cc(Nc2nc(N[C@@H]3CCCC[C@@H]3N)c(F)cc2C(N)=O)cnc1N` (relative stereo) [Example 004-142, methyl 2-amino-5-((6-(cis-2-aminocyclohexylamino)-3-carbamoyl-5-fluoropyridin-2-yl)amino)nicotinate], the IC50 fell in the range of 0.01 to 0.05 µM.

As usually defined, the IC50 is the concentration needed to halve the response being measured.
